Entries after “also recorded” stand apart in the source; their conditions may differ.
Legend:
Format in all cases: in vivo, mouse
[1] = tested on: BALB/c syngeneic transplant recipients after high-dose lethal radiation; assay: Syngeneic transplant after high-dose lethal radiation, different elsiglutide treatment schedules; settings: for apoptotic bodies within the crypts (TUNEL stain): D4 after radiation
Procedure: This experiment was carried out to determine the effect of daily elsiglutide administration (800 nmol/kg) on weight recovery and bowel weight in response to high dose radiotherapy using different treatment schedules. Syngeneic transplant was performed to rescue the animals from early death due to hematopoietic failure to be able to examine the mice at several time points. […] Treatment with elsiglutide increased small bowel mass after irradiation and syngeneic transplant. The longer the treatment the more pronounced the effect.
TUNEL stain was then performed to assess apoptosis of intestinal epithelial cells on D4 after radiation. We observed a small number of apoptotic bodies within the crypts of all mice at D4 post irradiation and transplantation (FIG. 4).

healthy BALB/c mice = assay: Escalating elsiglutide doses in healthy mice (no irradiation or transplant)
Procedure: In this experiment elsiglutide at escalating doses (200-800 nmol/kg/d) was injected to healthy mice without irradiation or chemotherapy for 10 days.
In this experiment we also performed Ki67 stains to document the proliferation of crypt cells in response to elsiglutide (FIG. 7). In healthy mice treated with vehicle Ki67 immunoreactivity was predominantly confined to the crypts where the stem cells reside.

[2] = tested on: graft-versus-host disease in lethally-irradiated BALB/c mice transplanted from B6 mice; assay: GVHD prevention after major MHC-mismatched allogeneic HSCT (2×10^6 splenic T-cells); settings: 800 nmol/kg/d
Description: (§1) To determine the effect of elsiglutide treatment on graft-versus-host disease in MHC-mismatched (allogeneic) murine hematopoietic stem-cell transplantation and identify the optimal dosing schedule, in this experiment BALB/c mice were lethally-irradiated and transplanted with bone marrow (5×10^6 cells) from B6 mice plus 2×10^6 splenic T-cells and treated with 800 nmol/kg/d elsiglutide at 4 different treatment schedules (syngeneic transplant and allogeneic transplant with vehicle were used as controls).

[3] = tested on: major MHC-mismatched GVHD model, BALB/c mice; assay: GVHD prevention after allogeneic HSCT with lower T-cell dose (0.5×10^6 splenic T cells)
Description: as §1
In a subsequent experiment, we used the same design as Example 3 but with T-cell depleted (TCD) bone marrow (BM) cells (5×10^6 cells) and a lower T-cell dose (0.5×10^6 splenic T cells) to allow examination of survival differences in a major MHC-mismatched GVHD model (aggressive GVHD model). As treatment effect was similar in this experiment for groups 3-4 and 5-6, these groups were combined into an “elsiglutide pre-transplant” group and an “elsiglutide post-transplant” group for presentation. In addition, animals originally designated to end treatment on D4 resumed treatment on D9 and continued until D30 or SAC. This time, the administration of elsiglutide beginning on D1 post-transplantation rescued 100% of mice from lethal GVHD along with improvement in GVHD scores and weight. […] Control mice (allogeneic transplant with vehicle control) had 100% mortality as expected and syngeneic control mice had 100% survival as expected (FIG. 10). This further supports the hypothesis that the timing of administration of the drug (post- vs. pre-radiation conditioning) is critical.

[4] = tested on: major MHC mismatched allogeneic transplant mice; assay: Mechanistic study in major MHC-mismatched allogeneic transplant (flow cytometry/histology of organs, serum cytokines); settings: for proportion of Th1 and CD8+ T-cells expressing T-bet (intraepithelial, small intestine): 800 nmol/kg daily subcutaneous; for engraftment of hematopoietic stem cells / donor cells in the spleen: post-transplant elsiglutide vs vehicle, D7
Description: BALB/C mice underwent lethal TBI. (850 cGy Cs137) and transplantation with 5×10^6 T-cell depleted bone marrow cells and 1×10^6 splenic T-cells from B6 donors (major MHC-mismatch model).
To further explore the mechanism behind the treatment effect observed in Example 4, we used the same experimental design as Example 4. […]

[5] = tested on: BALB/C mice, syngeneic transplant; assay: Innate immune cells of the lamina propria after syngeneic transplant; settings: for recovery of mature (P4) lamina propria macrophages: D+7, vs vehicle
Description: To assess the impact of GLP-2 on macrophage maturation in the absence of inflammatory GVHD, BALB/C mice were transplanted with T-cell depleted bone marrow from BALB/C donors and given daily S.C. injections of GLP-2 as mentioned above. […] P1-P4 macrophages were gated as CD45+CD19^−CD3-Ly6G^− and CD11b^+ or CD11c^+. Subsets of the “monocyte-waterfall” were gated as: P1: CD64^−/low Ly6C^+MHC II^− CX3CR1^−/low; P2: CD64^low/+Ly6C^+ MHC II^+ CX3CR1^−/low; P3: CD64^+ Ly6C^−MHC II^+ CX3CR1^−/low; P4: CD64^+Ly6C^−MHC II^+ CX3CR1^+. N=4 per treatment group.
Daily subcutaneous injection of GLP-2 increases the relative abundance of lamina propria ILCs in a process that appears to target type-3 ILCs (ILC3s). ILC3s are important immunomodulators of the lamina propria and intestinal stem-cell (ISC) niche via their production of IL-22, playing a role in ISC maintenance. […] ILCs were gated as CD45^+ CD19^− CD3^− Ly6G^− CD11b^− CD11c^− CD127^+, with subsets being assigned based on Tbet (ILC1), GATA-3 (ILC2) and RORgt (ILC3) expression.

intestinal microbiota = assay: Intestinal microbiota by 16S rRNA sequencing of stool after lethal TBI and syngeneic transplantation
Procedure: Mice undergoing lethal TBI were treated with daily S.C. injections with Elsiglutide (GLP-2) and their stool collected for 16s rRNA sequencing on D+0 (baseline), D+14 and D+28 post-transplant.
To assess potential mechanisms for the differences in macrophage and T-cell phenotype, we examined the impact of GLP-2 on the intestinal microbiota. A syngeneic BALB/cJ model (similar to Example 1) was used to explore the effects of GLP-2 independent of GVHD. Stool samples from D+0, D+14, and D+28 were subjected to 16S rRNA sequencing. Vehicle-treated mice had distinct […] clusters at all time-points, showing a transplant effect on the microbiota (FIG. 28A). […] These taxa have been associated with anti-inflammatory properties and A. muciniphila abundance is linked to epithelial mucin production, which is increased by GLP-2.

[6] = tested on: BALB/C mice, lethal TBI and allogeneic transplantation; assay: Cage conditions experiment in allogeneic transplant (co-housed, separate, separate plus antibiotics); settings: caged separately plus antibiotics D-2 to D+14; listed as GLP-2
Description: BALB/C mice underwent lethal TBI and allogeneic transplantation were assigned to 3 cage conditions to perturb their microbial composition: 1) vehicle and GLP-2 treated animals housed together, 2) treatment groups housed separately or 3) treatment groups housed separately and provided with neomycin and polymyxin-b in their drinking water from D-2 to D+14 post-transplant.
We then assessed the role of microbial communities in the protective effect of GLP-2 by conducting an allogeneic transplant with 3 caging conditions; 1) vehicle and GLP-2 treated mice caged together, 2) caged separately, or 3) caged separately plus oral antibiotics.

[7] = D+21 post-transplant, listed as Elsiglutide
[8] = post-transplant elsiglutide, allogeneic transplant

## elsiglutide
[1]; 800 nmol/kg daily, several treatment schedules
  weight recovery after high dose radiotherapy: without a clear effect
[1]; 800 nmol/kg daily, treatment start on D-3
  weight recovery after radiation: slightly worse than other schedules
[1]; 800 nmol/kg daily, longer treatment more pronounced
  small bowel mass after irradiation and syngeneic transplant: increased
[1]; pre-transplant treated animals (D-7), vs vehicle
  apoptotic bodies within the crypts (TUNEL stain): increased abundance of apoptotic bodies
[1]; treatment D-7 to D-3 then resumed on D1
  apoptotic bodies within the crypts (TUNEL stain): very few apoptotic bodies
[1]; treatment beginning D1 post-transplant
  apoptotic bodies within the crypts (TUNEL stain): almost no apoptotic bodies
[1]; after radiation, longer courses most pronounced
  villi length and crypt depth (histology, distal small bowel): enhanced
Healthy BALB/c mice; 200-800 nmol/kg/d
  Ki67 staining, difference between doses: no obvious difference
Healthy BALB/c mice; 200-800 nmol/kg/d for 10 days, unirradiated
  total body weight over baseline: enhanced; also recorded: dose-dependent weight increase
Healthy BALB/c mice; 200-800 nmol/kg/d, by day 10
  weight of small and large bowel: enhanced; also recorded: dose-dependent increase
Healthy BALB/c mice; vs vehicle-treated healthy mice
  Ki67 proliferation staining of crypt cells: extended further out of the crypts into the villi
[2]; 4 treatment schedules, p<0.0001, not dependent on schedule
  small bowel weight and length: increase
[2]; 2×10^6 T-cell dose, all mice except 1 from −D3-D4 group, euthanized by D8
  GVHD outcome: developed severe GvHD by D6
[3]; elsiglutide beginning on D1 post-transplantation
  GVHD scores and weight: improvement
[3]; elsiglutide beginning on D1 post-transplantation, through day 35
  mice rescued from lethal GVHD: 100%
[3]; post-transplant elsiglutide group, after discontinuation of treatment (day 30)
  mice surviving long term: 50%
[3]; pre-transplant elsiglutide
  GVHD scores and weight in surviving mice: still had an effect
[3]; pre-transplant elsiglutide, through day 35
  mice rescued from death: 40%
[4]
  proportion of Th1 and CD8+ T-cells expressing T-bet (intraepithelial, small intestine): lower proportion
  engraftment of hematopoietic stem cells / donor cells in the spleen: did not impair
[4]; listed as Elsiglutide
  proportion of Th1 and CD8+ T-cells expressing T-bet (intraepithelial, small intestine): reduced
[4]; D+21 after transplant, vs vehicle
  interferon gamma in the serum: lower levels
[4]; D+21 post-transplant
  co-stimulatory molecules and SIRPα on lamina propria macrophages: reduced expression of co-stimulatory molecules and increased SIRPα
  lamina propria macrophages with tolerogenic/mature phenotype (higher CX3CR1, SIRP-alpha; lower CD80, CD86, CD206): increase
[4]; [7]
  Ly6C^high MHC-II^low immature macrophages: decrease; also recorded: significant reduction
  lamina propria macrophages with tolerogenic/mature phenotype (higher CX3CR1, SIRP-alpha; lower CD80, CD86, CD206): increased prevalence
[4]; allogeneic setting, D+14 post-transplant
  recovery of innate lymphoid cell (ILC) subtypes in lamina propria: did not enhance recovery of any ILC subtype
[4]; day 7 after transplant
  T-cell activation: reduced
[4]; listed as elsigltide
  engraftment of hematopoietic stem cells / donor cells in the spleen: comparable engraftment
[4]; [8]
  body weight loss: absence of weight loss
  small bowel mass and length: increase
[4]; vs allogeneic transplant mice with vehicle
  lung inflammation, macroscopic assessment (1×): fewer areas of inflammation and healthier appearing lung tissue
[4]; vs vehicle
  CD44 expression on gut T-cells: higher
  expression of adhesion molecules on gut lamina propria T-cells (CD103 on CD4 T-cells): decreased; also recorded: lower
  lung infiltrates and alveolar wall thickening (20×): decreased infiltration and less alveolar wall thickening
[4]; vs vehicle treated mice
  CD3+ T-cell infiltration in colon and small bowel (immunohistochemistry): decreased T-cell infiltration with more focal and less diffuse pattern of infiltration and fewer intraepithelial T-cells
[4]; vs vehicle-treated mice
  T-EMRA cells in CD4 and CD8 T-cells, IEL and LPL: fewer
  alveolar diameter and alveolar wall thickness: decreased inflammation and alveolar damage
[4]; vs vehicle-treated mice, 20× magnification
  inflammation in the liver portal triads: decreased inflammation
[5]
  ILC3: significant increase
  recovery of mature (P4) lamina propria macrophages: improved recovery
[5]; listed as GLP-2
  recovery of mature (P4) lamina propria macrophages: increased shift
[5]; D+14
  recovery / relative abundance of lamina propria ILCs: improved
[5]; D+14, listed as GLP-2
  recovery / relative abundance of lamina propria ILCs: increases
Intestinal microbiota; D+14 and D+28
  abundance of Bacteroidales S24-7 family: significantly enriched
Intestinal microbiota; D+14 and D+28, listed as GLP-2
  abundance of Akkermansia muciniphila: significantly enriched; also recorded: increased
Intestinal microbiota; continual treatment
  β-diversity of stool microbiota by D+28: shifts in β-diversity
Intestinal microbiota; daily S.C. injections, listed as GLP-2
  β-diversity clusters of stool microbiota, D+0 vs D+14: near-complete cluster overlap; also recorded: overlap between D+0 and D+14 samples
[6]
  effect of oral antibiotics (neomycin and polymyxin-b) on the survival benefit of treatment: dampened the beneficial effect; also recorded: reduced the efficacy
